Holding throughout (type): physicochemical
A short description of data set [1]: Laser-flash photolysis (transient spectral measurements). The note with it: for time to release the amino acid on photolysis: aqueous solution, visible region; for time constant of single-exponential absorbance decay at 460 nm: light pulse ≧400 nm, 0.8 mM, HEK buffer pH 7.4, 22° C. On the procedure:
[…] The energy of the beam was measured using a Molectron (Portland, Oreg.) joule meter. Light of≧400 nm produced by fluorescence from 4.9×10^−4 M Exalite 404 dye (Exciton Inc., Dayton, Ohio) was used to initiate photolysis. The decay of the transient intermediate absorbance was recorded by digitizing the photomultiplier output at rates up to 2 MHz. The transient absorption changes were monitored at a wavelength where there was significant change in the absorption on irradiation of the caged compound (ca. 460 nm). All photolysis rates and quantum yields were measured at room temperature. Nonlinear least-squares fitting of single exponential decays was used to determine the photolysis rate constants.

Data set [2] is described as follows: Hydrolysis in the dark (thermal stability, UV-vis spectra). The note with it: for hydrolysis at room temperature: HEK buffer pH 7.4, protected from light, 2 h; for hydrolysis on storage: buffer pH 7.4, −20° C. in the dark; for stability in water: pH 7.4 and 22° C. / physiological conditions, in the dark.
Data set [3] can be described thus: Quantum yield of photolysis. The conditions noted are these: ≧400 nm, 250 μM, extracellular buffer pH 7.4, 22° C. The procedure: The quantum yield for the caged compound was determined by actinometric methods (Murov, in Dekker, ed., Handbook of Photochemistry, New York, pp. 298-305 (1993), which is hereby incorporated by reference in its entirety). The Oriel (Oriel Instruments, Stratford, Conn.) lamp used for photolysis was equipped with a filter (Schott glass filter GG400; Schott North America, Inc., Elmsford, N.Y.) to eliminate light at wavelengths below 400 nm.
The quantum yield was also determined using the method published by Milburn et al., “Synthesis, Photochemistry, and Biological Activity of a Caged Photolabile Acetylcholine Receptor Ligand,” Biochemistry 28:49-55 (1989), which is hereby incorporated by reference in its entirety. For measuring the quantum yield of DECM-caged glutamate photolysis, 3 mL sample of 4 (Scheme 1) was photolyzed with repetitive light pulses at≧400 nm, and the concentration of 2 (Scheme 1) was determined spectrophotometrically. For measuring the quantum yield of DECM-caged glycine photolysis, 3 mL sample of 4 (Scheme 2) was photolyzed with repetitive light pulses at≧400 nm, and the concentration of 2 (Scheme 2) was determined spectrophotometrically. […]

The nature of data set [4]: UV-vis absorption spectrum of the caged compound. The note with it: for ε390: 390 nm; for ε400: 400 nm. On the procedure:
The caged compound (1 mM) was rapidly dissolved in the buffer solution (150 mM NaCl, 1 mM CaCl2, 10 mM HEPES; the pH was adjusted to 7.4 using 5 N NaOH), and the solution was immediately transferred to a cuvette (4 mL volume, 10 mm path length) and placed in an absorption spectrometer (OLIS-14C) at 22° C. Whole spectra were recorded between 1 and 240 min after the compound was dissolved (FIGS. 1 and 7).

The nature of data set [5]: Solubility in water or the buffers used. The note with it: physiological conditions.

“And” between values parts separate entries of the source, which are not always exact repeats. Equal values may be shown once. “Also recorded” adds a separate entry of the source. Some results are limits rather than exact numbers.

As to `CCN(CC)c1ccc2c(COC(=O)CCC(N)C(=O)O)cc(=O)oc2c1` (centres unmarked) [DECM-caged glutamate, (7-N,N-Diethylaminocoumarin-4-yl)-methyl-glutamate-trifluoroacetate], in data set [1], the “time to release the amino acid on photolysis” value is recorded as not above 3 μs and the “time constant of single-exponential absorbance decay at 460 nm” value came out at 3 μs. Also, in data set [2], the “hydrolysis at room temperature” value is “very little hydrolysis” and the stability in water result is given as “stable in the dark”. Further, in data set [2] (24 h), the hydrolysis on storage result is recorded as “No measurable hydrolysis”. Further, the “quantum yield of photolysis” value in data set [3] is 0.11±0.008 and 0.11±0.08. In addition, in data set [4], the “major absorption band maximum” value is 390 nm, the ε390 came to 13651 M⁻¹ cm⁻¹ and the ε400 is 12232 M⁻¹ cm⁻¹. In addition, the solubility in water result in data set [5] is “sufficiently soluble in water or the buffers used; also recorded: water soluble”.

`CCN(CC)c1ccc2c(COC(=O)CN)cc(=O)oc2c1` [DECM-caged glycine, (7-N,N-Diethylaminocoumarin-4-yl)-methyl-glycine-trifluoroacetate]: in data set [1], the “time to release the amino acid on photolysis” value is reported as not above 2.6 μs and the “time constant of single-exponential absorbance decay at 460 nm” value came to 2.6 μs. Besides, in data set [2], the “hydrolysis at room temperature” value is listed as “very little hydrolysis” and the stability in water entry is on record as “stable”. Further, the hydrolysis on storage entry in data set [2] (20 h) is on record as “No measurable hydrolysis”. Moreover, the “quantum yield of photolysis” value in data set [3] amounted to 0.12±0.009. In data set [4], the “major absorption band maximum” value was found to be 390 nm, the ε390 worked out at 13869 M⁻¹ cm⁻¹ and the ε400 came out at 12427 M⁻¹ cm⁻¹. In addition, in data set [5], the solubility in water result is reported as “water soluble”.

Values taken from US8053585B2, “Protecting group for carboxylic acids that can be photolyzed by visible light” (Cornell Research Foundation, Inc., priority 2006, dated 2011).
